Data set [1] deals with Phosphatidylinositol 4-phosphate 3-kinase C2 domain-containing subunit beta (Homo sapiens) (UniProt O00750). Conditions: Compound concentration 1000.0 nM; call rule not given here.
Data set [2] addresses T1, Alpha-1D adrenergic receptor (Homo sapiens) (UniProt P25100).
T1 sequence (whole entry): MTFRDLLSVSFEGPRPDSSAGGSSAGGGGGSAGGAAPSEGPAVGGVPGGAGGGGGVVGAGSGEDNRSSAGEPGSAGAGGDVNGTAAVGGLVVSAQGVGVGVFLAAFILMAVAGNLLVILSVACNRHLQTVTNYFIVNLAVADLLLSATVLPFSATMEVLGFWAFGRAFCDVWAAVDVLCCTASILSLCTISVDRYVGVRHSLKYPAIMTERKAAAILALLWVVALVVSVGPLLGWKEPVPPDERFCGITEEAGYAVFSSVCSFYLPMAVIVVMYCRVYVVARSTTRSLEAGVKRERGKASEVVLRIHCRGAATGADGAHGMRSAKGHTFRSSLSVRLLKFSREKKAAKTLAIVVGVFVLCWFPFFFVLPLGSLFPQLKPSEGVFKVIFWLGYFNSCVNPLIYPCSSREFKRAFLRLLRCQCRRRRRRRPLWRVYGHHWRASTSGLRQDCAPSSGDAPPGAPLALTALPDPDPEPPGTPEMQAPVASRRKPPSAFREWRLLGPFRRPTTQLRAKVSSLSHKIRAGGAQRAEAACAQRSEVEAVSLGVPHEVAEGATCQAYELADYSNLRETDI
Briefly: Inhibition of Adrenergic alpha1D at 10 µM in the Eurofins-Panlabs radioligand binding assay (Eurofins_assay_203400). Conditions: Compound concentration 10.0 uM.

The species named for another data set is Mus musculus. Kind of data set: Inhibition of Phorbol Ester at 10 µM in the Eurofins-Panlabs radioligand binding assay (Eurofins_assay_264500). Also on record: ligand concentration 3 nM. The following applies: Compound concentration 10.0 uM.
Data set [3] is filed under the species Rattus norvegicus. Briefly: Inhibition of Imidazoline I2, Central at 10 µM in the Eurofins-Panlabs radioligand binding assay (Eurofins_assay_241000). On the set-up: ligand concentration 2 nM. Conditions: Compound concentration 10.0 uM.
In data set [4] the target is Adenosine receptor A2a (Homo sapiens) (UniProt P29274). The following applies: Compound concentration 10.0 uM.
For data set [5], the target named is Endothelin-1 receptor (Homo sapiens) (UniProt P25101). Conditions: Compound concentration 10.0 uM.
The target in data set [6] is B2 bradykinin receptor (Homo sapiens) (UniProt P30411). Kind of data set: Bradykinin B2 Eurofins-Panlabs radioligand binding assay. Conditions: Compound concentration 10.0 uM.
For data set [7], the target named is Adenosine receptor A1 (Homo sapiens) (UniProt P30542). The following applies: Compound concentration 10.0 uM.
For data set [8], the target named is Histamine H1 receptor (Homo sapiens) (UniProt P35367). Conditions: Compound concentration 10.0 uM.
Chain of Histamine H1 receptor (Homo sapiens) (P35367 whole entry): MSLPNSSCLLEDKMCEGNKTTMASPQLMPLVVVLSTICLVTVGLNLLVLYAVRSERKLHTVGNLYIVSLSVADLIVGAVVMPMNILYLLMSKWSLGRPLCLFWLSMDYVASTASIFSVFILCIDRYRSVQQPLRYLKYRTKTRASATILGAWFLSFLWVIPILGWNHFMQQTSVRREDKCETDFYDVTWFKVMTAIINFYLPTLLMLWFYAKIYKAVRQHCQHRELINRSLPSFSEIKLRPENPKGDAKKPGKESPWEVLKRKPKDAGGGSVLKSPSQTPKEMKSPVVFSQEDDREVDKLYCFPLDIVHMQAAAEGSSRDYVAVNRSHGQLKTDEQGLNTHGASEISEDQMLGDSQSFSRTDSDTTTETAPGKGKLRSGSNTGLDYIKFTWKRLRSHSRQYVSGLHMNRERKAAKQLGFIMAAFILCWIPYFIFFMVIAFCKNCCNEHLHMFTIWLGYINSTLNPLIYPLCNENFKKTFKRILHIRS
The target of data set [9] is Kappa-type opioid receptor (Homo sapiens) (UniProt P41145). The following applies: Compound concentration 10.0 uM.
The target of data set [10] is Alpha-1A adrenergic receptor (Homo sapiens) (UniProt P35348). The following applies: Rattus norvegicus; Compound concentration 10.0 uM.
Data set [11] has as its target T2, Muscarinic acetylcholine receptor M1 (Homo sapiens) (UniProt P11229).
T2 sequence (whole entry): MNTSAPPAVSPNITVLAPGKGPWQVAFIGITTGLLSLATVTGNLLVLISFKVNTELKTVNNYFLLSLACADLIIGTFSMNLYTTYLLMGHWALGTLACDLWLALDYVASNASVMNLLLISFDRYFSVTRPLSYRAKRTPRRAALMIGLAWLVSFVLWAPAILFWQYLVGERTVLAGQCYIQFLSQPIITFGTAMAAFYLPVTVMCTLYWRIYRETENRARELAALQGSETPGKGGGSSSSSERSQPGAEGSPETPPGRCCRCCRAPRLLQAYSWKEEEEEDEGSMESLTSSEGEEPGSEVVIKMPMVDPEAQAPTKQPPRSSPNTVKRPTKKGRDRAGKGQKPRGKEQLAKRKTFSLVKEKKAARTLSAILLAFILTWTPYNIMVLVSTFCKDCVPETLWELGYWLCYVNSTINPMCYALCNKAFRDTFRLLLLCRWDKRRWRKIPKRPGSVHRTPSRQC
The following applies: Compound concentration 10.0 uM.

For data set [12], the species on record is Rattus norvegicus. Kind of data set: Inhibition of Rolipram at 10 µM in the Eurofins-Panlabs radioligand binding assay (Eurofins_assay_268811). The class given is protein assay. On the set-up: ligand concentration 1.8 nM. Conditions: Compound concentration 10.0 uM.
In data set [13] the target is Sodium-dependent dopamine transporter (Homo sapiens) (UniProt Q01959). Conditions: Compound concentration 10.0 uM.
Chain of Sodium-dependent dopamine transporter (Homo sapiens) (Q01959 whole entry): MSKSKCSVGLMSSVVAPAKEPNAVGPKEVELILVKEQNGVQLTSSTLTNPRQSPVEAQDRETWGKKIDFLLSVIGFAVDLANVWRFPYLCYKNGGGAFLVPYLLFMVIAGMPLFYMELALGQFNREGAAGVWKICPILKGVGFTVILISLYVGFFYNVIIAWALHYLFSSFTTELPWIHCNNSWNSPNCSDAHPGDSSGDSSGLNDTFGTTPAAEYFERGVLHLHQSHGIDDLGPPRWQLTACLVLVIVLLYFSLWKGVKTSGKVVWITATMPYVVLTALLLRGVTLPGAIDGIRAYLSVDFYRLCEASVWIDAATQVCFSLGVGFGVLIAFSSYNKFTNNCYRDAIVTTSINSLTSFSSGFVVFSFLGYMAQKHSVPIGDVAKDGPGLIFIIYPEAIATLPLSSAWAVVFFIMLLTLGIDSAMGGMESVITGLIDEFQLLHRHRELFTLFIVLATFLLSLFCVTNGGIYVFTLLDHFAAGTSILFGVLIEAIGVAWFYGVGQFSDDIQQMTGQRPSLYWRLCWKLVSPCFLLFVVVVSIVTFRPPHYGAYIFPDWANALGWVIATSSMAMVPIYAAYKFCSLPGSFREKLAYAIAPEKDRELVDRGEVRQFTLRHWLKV
For data set [14], the target named is GABA-A receptor; anion channel (Rattus norvegicus) (UniProt O09028+P15431+P18506+P18508+P19969+P20236+P23574+P23576+P28471+P28473+P30191+P62813+P63079+P63138+Q91ZM7+Q9ES14). Briefly: Inhibition of GABAA, Muscimol, Central at 10 µM in the Eurofins-Panlabs radioligand binding assay (Eurofins_assay_226500). The class given is protein-complex assay. Conditions: Compound concentration 10.0 uM.

Data set [15] addresses Histamine H3 receptor (Homo sapiens) (UniProt Q9Y5N1). Conditions: Compound concentration 10.0 uM.
Another data set is filed under the species Homo sapiens. Kind of data set: Inhibition of Nicotinic Acetylcholine at compound concentration of 10.0 uM in the Eurofins-Panlabs radioligand binding assay (Eurofins_assay_258590). The class given is protein-complex assay. Conditions: Compound concentration 10.0 uM.
The target of data set [16] is T3, 5-hydroxytryptamine receptor 1A (Homo sapiens) (UniProt P08908).
T3 sequence (whole entry): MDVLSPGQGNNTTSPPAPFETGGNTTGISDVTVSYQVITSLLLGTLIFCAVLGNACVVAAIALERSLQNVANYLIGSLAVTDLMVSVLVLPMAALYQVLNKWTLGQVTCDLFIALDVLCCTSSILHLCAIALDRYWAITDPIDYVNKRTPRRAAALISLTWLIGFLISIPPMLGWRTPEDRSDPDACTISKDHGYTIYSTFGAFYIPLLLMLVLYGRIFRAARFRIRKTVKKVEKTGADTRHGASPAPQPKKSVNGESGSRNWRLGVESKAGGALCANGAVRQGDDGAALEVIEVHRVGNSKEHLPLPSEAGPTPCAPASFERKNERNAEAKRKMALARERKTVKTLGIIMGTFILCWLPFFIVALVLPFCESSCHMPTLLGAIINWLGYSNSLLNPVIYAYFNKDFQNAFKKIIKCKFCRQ
The following applies: Compound concentration 10.0 uM.

For data set [17], the target named is ATP-sensitive inward rectifier potassium channel 11 (Cricetulus griseus) (UniProt A0A3L7HHE1). Briefly: Inhibition of Potassium Channel [KATP] at 10 µM in the Eurofins-Panlabs radioligand binding assay (Eurofins_assay_265600). Conditions: Cricetinae; Compound concentration 10.0 uM.
In data set [18] the target is Sodium-dependent serotonin transporter (Homo sapiens) (UniProt P31645). The following applies: Compound concentration 10.0 uM.
In data set [19] the target is L-type calcium channel, dihydropyridine site (Cav1.2 alpha-1C) (Homo sapiens, UniProt Q13936). Briefly: Inhibition of Calcium Channel L-Type, Dihydropyridine at 10 µM in the Eurofins-Panlabs radioligand binding assay (Eurofins_assay_214600). Also on record: ligand concentration 0.1 nM, non-specific ligand with concentration 1 µM Nitrendipine, incubation time 90 min, incubation temperature 25 °C. Conditions: Wistar, rat, rat cerebral cortex preparation, probe [3H] Nitrendipine; compound concentration 10 uM; target entry is the homologue from another species.
Chain of L-type calcium channel, dihydropyridine site (Cav1.2 alpha-1C) (Q13936 whole entry): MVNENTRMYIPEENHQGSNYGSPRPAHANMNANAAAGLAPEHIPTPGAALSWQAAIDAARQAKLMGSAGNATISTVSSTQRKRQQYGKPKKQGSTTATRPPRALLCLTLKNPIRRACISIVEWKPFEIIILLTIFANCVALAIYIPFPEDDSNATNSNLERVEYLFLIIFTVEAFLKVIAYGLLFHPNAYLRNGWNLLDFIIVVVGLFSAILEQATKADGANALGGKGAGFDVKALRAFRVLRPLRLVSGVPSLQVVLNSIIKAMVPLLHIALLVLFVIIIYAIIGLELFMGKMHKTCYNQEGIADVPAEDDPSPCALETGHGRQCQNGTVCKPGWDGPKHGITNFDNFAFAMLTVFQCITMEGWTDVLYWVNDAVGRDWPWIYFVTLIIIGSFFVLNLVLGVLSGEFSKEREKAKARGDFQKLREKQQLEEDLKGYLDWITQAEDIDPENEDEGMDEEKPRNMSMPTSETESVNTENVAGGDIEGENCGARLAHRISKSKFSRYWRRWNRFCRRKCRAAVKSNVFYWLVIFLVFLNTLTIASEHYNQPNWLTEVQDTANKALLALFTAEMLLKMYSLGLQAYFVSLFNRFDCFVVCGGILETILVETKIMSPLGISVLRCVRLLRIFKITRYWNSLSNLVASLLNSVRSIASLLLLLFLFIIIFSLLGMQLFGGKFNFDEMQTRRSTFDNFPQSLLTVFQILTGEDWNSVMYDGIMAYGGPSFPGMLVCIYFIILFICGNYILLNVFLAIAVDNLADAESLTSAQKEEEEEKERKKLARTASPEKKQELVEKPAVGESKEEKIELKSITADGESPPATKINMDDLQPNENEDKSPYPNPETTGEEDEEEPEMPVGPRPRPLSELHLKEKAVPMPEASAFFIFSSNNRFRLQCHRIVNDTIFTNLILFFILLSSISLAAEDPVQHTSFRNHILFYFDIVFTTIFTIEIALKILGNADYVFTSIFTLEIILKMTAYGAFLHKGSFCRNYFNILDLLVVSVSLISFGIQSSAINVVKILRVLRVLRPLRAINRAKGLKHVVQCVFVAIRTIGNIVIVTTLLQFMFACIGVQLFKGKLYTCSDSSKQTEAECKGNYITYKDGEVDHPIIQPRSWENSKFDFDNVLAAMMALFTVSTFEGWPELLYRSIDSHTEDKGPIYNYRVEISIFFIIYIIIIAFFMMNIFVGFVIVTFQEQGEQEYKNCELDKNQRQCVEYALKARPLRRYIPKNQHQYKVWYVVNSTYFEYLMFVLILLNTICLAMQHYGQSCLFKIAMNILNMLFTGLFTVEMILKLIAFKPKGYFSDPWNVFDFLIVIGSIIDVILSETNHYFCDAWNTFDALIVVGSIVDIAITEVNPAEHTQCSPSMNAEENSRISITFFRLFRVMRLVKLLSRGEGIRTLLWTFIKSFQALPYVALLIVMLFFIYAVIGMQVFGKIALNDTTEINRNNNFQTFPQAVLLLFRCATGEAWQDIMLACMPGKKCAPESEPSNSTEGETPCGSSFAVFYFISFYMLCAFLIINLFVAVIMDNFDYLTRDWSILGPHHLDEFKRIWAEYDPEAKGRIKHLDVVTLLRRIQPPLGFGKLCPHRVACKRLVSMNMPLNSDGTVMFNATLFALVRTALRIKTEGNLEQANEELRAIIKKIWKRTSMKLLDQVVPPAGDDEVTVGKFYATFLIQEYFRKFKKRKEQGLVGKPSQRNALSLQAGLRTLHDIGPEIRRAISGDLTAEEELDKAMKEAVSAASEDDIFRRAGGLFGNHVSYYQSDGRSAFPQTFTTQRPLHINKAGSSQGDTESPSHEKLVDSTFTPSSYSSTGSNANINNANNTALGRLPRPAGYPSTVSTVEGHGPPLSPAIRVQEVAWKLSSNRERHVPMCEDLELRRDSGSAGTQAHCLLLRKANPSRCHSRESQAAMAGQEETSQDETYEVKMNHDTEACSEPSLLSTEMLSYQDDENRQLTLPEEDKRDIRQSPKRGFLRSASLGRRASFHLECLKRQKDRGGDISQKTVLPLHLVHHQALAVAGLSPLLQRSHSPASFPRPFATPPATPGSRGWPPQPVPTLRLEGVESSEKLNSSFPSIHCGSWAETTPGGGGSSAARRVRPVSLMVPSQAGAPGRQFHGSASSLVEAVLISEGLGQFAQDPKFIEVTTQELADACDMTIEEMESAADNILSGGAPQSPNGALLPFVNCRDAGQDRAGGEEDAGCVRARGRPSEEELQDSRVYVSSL

What is called residual activity is what remains of the control signal, in per cent. Usually inhibition stands for the drop in the measured response relative to a control, in per cent.

Chain of Phosphatidylinositol 4-phosphate 3-kinase C2 domain-containing subunit beta (Homo sapiens) (O00750 whole entry, the tested form may be a part): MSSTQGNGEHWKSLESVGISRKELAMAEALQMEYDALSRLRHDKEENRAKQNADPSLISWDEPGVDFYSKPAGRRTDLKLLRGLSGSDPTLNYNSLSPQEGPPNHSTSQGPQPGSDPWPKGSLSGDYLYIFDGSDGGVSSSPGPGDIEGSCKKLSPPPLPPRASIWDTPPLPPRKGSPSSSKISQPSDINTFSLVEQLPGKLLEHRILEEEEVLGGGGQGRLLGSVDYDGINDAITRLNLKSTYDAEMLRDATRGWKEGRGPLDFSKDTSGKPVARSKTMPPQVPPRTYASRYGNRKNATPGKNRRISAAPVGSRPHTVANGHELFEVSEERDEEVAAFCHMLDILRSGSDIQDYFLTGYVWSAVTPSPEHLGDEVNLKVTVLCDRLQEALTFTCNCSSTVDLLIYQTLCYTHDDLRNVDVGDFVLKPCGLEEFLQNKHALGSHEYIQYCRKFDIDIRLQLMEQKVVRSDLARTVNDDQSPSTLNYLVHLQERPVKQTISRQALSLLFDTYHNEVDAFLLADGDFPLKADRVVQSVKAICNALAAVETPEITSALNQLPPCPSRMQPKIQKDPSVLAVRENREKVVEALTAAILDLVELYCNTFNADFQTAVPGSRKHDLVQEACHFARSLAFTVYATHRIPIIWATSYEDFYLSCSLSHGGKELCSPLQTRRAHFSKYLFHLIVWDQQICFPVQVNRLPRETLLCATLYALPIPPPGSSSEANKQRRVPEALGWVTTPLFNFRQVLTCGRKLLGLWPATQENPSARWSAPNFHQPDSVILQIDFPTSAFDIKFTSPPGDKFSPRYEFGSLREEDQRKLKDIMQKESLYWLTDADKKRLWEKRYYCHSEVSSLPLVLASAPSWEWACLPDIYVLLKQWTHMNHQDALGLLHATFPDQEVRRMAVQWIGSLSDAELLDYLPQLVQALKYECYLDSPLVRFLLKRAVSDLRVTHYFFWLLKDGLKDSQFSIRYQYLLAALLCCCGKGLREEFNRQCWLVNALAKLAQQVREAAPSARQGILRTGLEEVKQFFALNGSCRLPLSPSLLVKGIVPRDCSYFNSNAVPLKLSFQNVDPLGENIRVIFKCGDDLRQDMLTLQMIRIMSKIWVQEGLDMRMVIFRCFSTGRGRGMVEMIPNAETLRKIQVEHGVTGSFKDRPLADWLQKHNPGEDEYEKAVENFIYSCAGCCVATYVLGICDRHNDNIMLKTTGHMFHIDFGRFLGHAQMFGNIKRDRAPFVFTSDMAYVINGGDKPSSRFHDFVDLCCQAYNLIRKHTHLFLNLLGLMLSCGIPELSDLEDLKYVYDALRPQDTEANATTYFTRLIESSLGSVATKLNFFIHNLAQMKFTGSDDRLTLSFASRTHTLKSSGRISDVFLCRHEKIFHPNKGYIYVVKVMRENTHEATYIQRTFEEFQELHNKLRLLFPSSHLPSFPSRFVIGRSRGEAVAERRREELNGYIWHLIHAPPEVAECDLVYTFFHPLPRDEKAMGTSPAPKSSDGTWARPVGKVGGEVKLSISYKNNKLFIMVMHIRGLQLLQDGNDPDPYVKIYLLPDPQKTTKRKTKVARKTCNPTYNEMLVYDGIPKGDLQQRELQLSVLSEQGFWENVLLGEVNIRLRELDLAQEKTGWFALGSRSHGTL

As for `O=C(O)[C@@H]1[C@@H](Cn2nnc3ccccc3c2=O)CC[C@H]1C(=O)c1ccc(OCCC2CCOCC2)cc1` [BAY-694], in data set [1], the residual activity was 100%.

`O=C(O)[C@H]1[C@H](Cn2nnc3ccccc3c2=O)CC[C@@H]1C(=O)c1ccc(OCCC2CCOCC2)cc1` [BAY-7598]: the inhibition in data set [2] is -9%; in the data set listed under Mus musculus, 4%; in the data set filed under Rattus norvegicus [3], 5%; in [4] it was 7%; in data set [5], 7%; in [6], -10%. For the same compound, the inhibition is -2% in [7]; 1% in data set [8]; 7% in [9]; 1% in data set [10]; 0% in [11]; 10% in the data set filed under Rattus norvegicus [12]. The inhibition in data set [13] is 0%; in data set [14] it was 10%; in [15] it was -6%; in the data set filed under Homo sapiens, -1%; in data set [16] it was -9%; in data set [17], 9%. Besides, the inhibition in [18] was 9%. Also, the residual activity in data set [1] is 90%. For the same compound, in [19], the inhibition at 90 min, 10 µM was 0% (not active).

These data come from ChEMBL document CHEMBL4507264, “Data for DCP probe BAY-7598” (2021).
